These results are taken from patent US8114991B2, “Amino-1,3,5-triazines N-substituted with chiral bicyclic radicals, process for their preparation, compositions thereof, and their use as herbicides and plant growth regulators” (Bayer Cropscience AG, priority 2003, dated 2012).

SMILES strings stand for the structures.

Series [1] deals with harmful plants such as Sinapis alba, Echinochloa crus-galli, Lolium multiflorum, Stellaria media, Cyperus iria, Amaranthus retroflexus, Setaria viridis, Avena …. The series is described as follows: Post-emergence effect on weeds (greenhouse pot test). Type of series: in vivo. The conditions noted are these: application rate of 2 kg or less of active ingredient per hectare; treated in the three-leaf stage; scored after approx. 3 to 4 weeks by comparison with untreated controls.

In series [2] the test system is harmful plants such as Stellaria media, Lolium multiforum, Amaranthus retroflexus, Sinapis alba, Avena sativa and Setaria viridis. The series is described as follows: Pre-emergence effect on weeds (greenhouse pot test). Type of series: in vivo. The conditions noted are these: application rate of 1 kg or less of active ingredient per hectare; scored after 3 to 4 weeks by comparison with untreated controls. The procedure, abridged:
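Seeds or rhizome pieces sown in sandy loam; test compounds (wettable powder or emulsion concentrate) applied pre-emergence to soil surface as aqueous suspension/emulsion at various dosages, 600 to 800 l water/ha. Greenhouse; plant/emergence damage scored visually after 3 to 4 weeks versus untreated controls.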

As to `C[C@@H](F)c1nc(N)nc(N[C@@H]2CCOc3ccccc32)n1` [Compound 1.20, 2-Amino-4-[(4R)4-chromanylamino]-6-[(1R)-1-fluoroethyl]-1,3,5-triazine], the melting point – broadly, the temperature, or range, at which the solid turns liquid – lay in the range of 110 to 112 °C. For the same molecule, the “herbicidal post-emergence activity against harmful plants (scored visually)” value (shortened to “herbicidal post-emergence activity”) in series [1] was “very good herbicidal post-emergence activity”. The “pre-emergence control of harmful plants (plant or emergence damage scored visually)” value (from here on “pre-emergence control of harmful plants”) in series [2] is “very good pre-emergence control”.
`Nc1nc(CCl)nc(N[C@@H]2CCc3ccccc32)n1` [Compound 8.113]: in series [1], the “herbicidal post-emergence activity” value is on record as “very good herbicidal post-emergence activity”. For the same molecule, the “pre-emergence control of harmful plants” value in series [2] is on record as “very good pre-emergence control”.
For the molecule `Cc1ccc2c(c1)[C@H](Nc1nc(N)nc(C(C)(C)F)n1)[C@@H](C)C2` [Compound 7.229], in series [1], the “herbicidal post-emergence activity” value is recorded as “very good herbicidal post-emergence activity”. In series [2], the “pre-emergence control of harmful plants” value is on record as “very good pre-emergence control”.
On the same counts, the results for `Nc1nc(CF)nc(N[C@@H]2CCCc3ccccc32)n1` [Compound 8.100] are “very good herbicidal post-emergence activity” and “very good pre-emergence control”.
For `C[C@@H](F)c1nc(N)nc(N[C@H]2c3ccccc3CC[C@@H]2C)n1` [Compound 2.11] the same measures were “very good herbicidal post-emergence activity” and “very good pre-emergence control”.
The molecule `Cc1nc(N)nc(N[C@@H]2CCc3ccccc32)n1` [Compound 8.1, 2-Amino-4-[(1R)-1-indanylamino]-6-methyl-1,3,5-triazine] came in with a melting point of 94 to 96 °C. Besides, the “herbicidal post-emergence activity” value in series [1] was “very good herbicidal post-emergence activity”. In addition, the “pre-emergence control of harmful plants” value in series [2] is “very good pre-emergence control”.
In the case of `CCC(F)c1nc(N)nc(NC2c3ccccc3CC2C)n1` (mixture of isomers) [Compound 9.36], the “herbicidal post-emergence activity” value in series [1] is given as “very good herbicidal post-emergence activity”. Moreover, the “pre-emergence control of harmful plants” value in series [2] is listed as “very good pre-emergence control”.
On the same counts, the results for `C[C@@H](F)c1nc(N)nc(N[C@@H]2CCOc3c(F)cccc32)n1` [Compound 1.67] are “very good herbicidal post-emergence activity” and “very good pre-emergence control”.
For `CCc1nc(N)nc(N[C@@H]2CCc3ccccc32)n1` [Compound 8.24] the same measures were “very good herbicidal post-emergence activity” and “very good pre-emergence control”.
On the same counts, the results for `Cc1nc(N)nc(N[C@H]2c3ccccc3C[C@@H]2C)n1` [Compound 7.1] are “very good herbicidal post-emergence activity” and “very good pre-emergence control”.
In the case of `CCC(F)c1nc(N)nc(N[C@@H]2CCCc3ccc(C)cc32)n1` (stereo partly shown) [Compound 10.47], the “herbicidal post-emergence activity” value in series [1] is on record as “very good herbicidal post-emergence activity”. Further, the “pre-emergence control of harmful plants” value in series [2] is “very good pre-emergence control”.
For `CCc1ccc2c(c1)[C@H](Nc1nc(N)nc(CCSC(F)(F)F)n1)CC2` [Compound 8.250] the same measures were “very good herbicidal post-emergence activity” and “very good pre-emergence control”.
In the case of `C[C@H](F)c1nc(N)nc(N[C@H]2c3ccccc3C[C@@H]2C)n1` [Compound 4.1], the “herbicidal post-emergence activity” value in series [1] is “very good herbicidal post-emergence activity”. In series [2], the “pre-emergence control of harmful plants” value is on record as “very good pre-emergence control”.
For `C[C@H]1Cc2ccccc2[C@@H]1Nc1nc(N)nc(CCSC(F)(F)F)n1` [Compound 7.241] the same measures were “very good herbicidal post-emergence activity” and “very good pre-emergence control”.
On the same counts, the results for `CCCc1nc(N)nc(N[C@@H]2CCc3ccc(F)cc32)n1` [Compound 8.49] are “very good herbicidal post-emergence activity” and “very good pre-emergence control”.
For `CCC(F)c1nc(N)nc(N[C@H]2c3cc(C)ccc3C[C@@H]2C)n1` (stereo partly shown) [Compound 9.37] the same measures were “very good herbicidal post-emergence activity” and “very good pre-emergence control”.
On to `Nc1nc(N[C@@H]2CCCc3ccccc32)nc(C(F)(F)F)n1` [Compound 8.254], for which the “herbicidal post-emergence activity” value in series [1] is on record as “very good herbicidal post-emergence activity”. Moreover, the “pre-emergence control of harmful plants” value in series [2] was “very good pre-emergence control”.
For `C[C@H](F)c1nc(N)nc(N[C@@H]2CCCc3ccccc32)n1` [Compound 3.11] the same measures were “very good herbicidal post-emergence activity” and “very good pre-emergence control”.
For `Cc1cc2c(cc1C)[C@H](Nc1nc(N)nc(C(C)(C)F)n1)CC2` [Compound 8.201] the same measures were “very good herbicidal post-emergence activity” and “very good pre-emergence control”.
On the same counts, the results for `Cc1nc(N)nc(N[C@@H]2CCc3ccc(F)cc32)n1` [Compound 8.3] are “very good herbicidal post-emergence activity” and “very good pre-emergence control”.
As for `CCc1nc(N)nc(N[C@H]2c3ccccc3CC[C@@H]2C)n1` [Compound 7.78], the “herbicidal post-emergence activity” value in series [1] is reported as “very good herbicidal post-emergence activity”. Also, the “pre-emergence control of harmful plants” value in series [2] is “very good pre-emergence control”.
On to `Cc1ccc2c(c1)[C@H](Nc1nc(N)nc(C(C)(C)Cl)n1)CC2` [Compound 8.219], for which the “herbicidal post-emergence activity” value in series [1] is “very good herbicidal post-emergence activity”. Also, in series [2], the “pre-emergence control of harmful plants” value was “very good pre-emergence control”.
With `C[C@@H](F)c1nc(N)nc(N[C@H]2c3ccccc3C[C@@H]2C)n1` [Compound 2.1, 2-Amino-4-[(1R,2S)-2-methyl-1-indanylamino]-6-[(1R)-1-fluoroethyl]-1,3,5-triazine], the melting point lay in the range of 146 to 150 °C. For the same molecule, in series [1], the “herbicidal post-emergence activity” value is on record as “very good herbicidal post-emergence activity”. Also, the “pre-emergence control of harmful plants” value in series [2] is listed as “very good pre-emergence control”.
With `Cc1cc2c(cc1C)[C@H](Nc1nc(N)nc([C@@H](C)F)n1)CC2` [Compound 1.7], the “herbicidal post-emergence activity” value in series [1] is given as “very good herbicidal post-emergence activity”. Further, the “pre-emergence control of harmful plants” value in series [2] was “very good pre-emergence control”.
In the case of `C[C@H]1Cc2ccccc2[C@@H]1Nc1nc(N)nc(CC#N)n1` [Compound 7.242], the “herbicidal post-emergence activity” value in series [1] is “very good herbicidal post-emergence activity”. For the same molecule, the “pre-emergence control of harmful plants” value in series [2] is on record as “very good pre-emergence control”.
For `Cc1cc(C)c2c(c1)[C@H](Nc1nc(N)nc(C(C)(C)F)n1)CCC2` [Compound 8.209] the same measures were “very good herbicidal post-emergence activity” and “very good pre-emergence control”.
